Experimental data: patent US10828578B2, “Reversible control of solution solubility using functionalized nanoparticles” (Massachusetts Institute of Technology, priority 2016, dated 2020)
≈ marks a conversion by molar mass, not a printed value.

Key:
[1] = physchem; details: water
Method: The method development involved the study of methanol and acetonitrile as organic modifiers, pH and flow-rate using a Chromolith RP-18e (150 mm×4.6 mm I.D.) column. After comparing the performance the optimum analysis of these compounds was achieved using 50 mM acetate buffer (pH 5.0)-acetonitrile (80:20, v/v) as mobile phase, 1 mL min-1 flow-rate and UV detection at maximum absorbance wavelength of 250 nm.

[2] = Solubility enhancement in water with glycolic acid functionalized iron oxide nanoparticles (HPLC); details: 2 ml suspension 20 g/L in water + 200 mg glycolic acid IONPs; part converted to 4-aminophenol
Method: The clear solution was analyzed using HPLC in order to determine the final concentration.

[3] = Solubility and metastable zone width of D-mannitol in water and water-ethanol mixtures (Crystal16); format: physicochemical; details: with an increase in the amount of ethanol (85-15, 75-25, 50-50% wt/wt water-ethanol)
From the text: According to the results of D-mannitol in water and water-ethanol mixtures, the solubility decreases with an increase in the amount of ethanol in water-ethanol mixtures. In order to know the required amount of functionalized nanoparticles and the operating region for crystallization, the MSZW of D-mannitol is important. For the samples of D-mannitol in the mixtures of 85-15 and 75-25% wt/wt of water-ethanol, the cloud point lies above the saturation temperature of D-mannitol in pure water. This means that, for the mixtures of 85-15 and 75-25% water-ethanol, and the solutes with a concentration of 193 mg/ml at 20° C., spontaneous nucleation will not occur because they will remain in solution. However, these experiments helped to determine the optimum operating supersaturation levels as well as the amount of antisolvent required to crystallize compounds at a given concentration. […]
The solubility and metastable zone width (MSZW) of D-mannitol was measured in pure DI water and DI water-ethanol mixtures at different concentrations by adding a known amount of D-mannitol and 1 mL of solvent or solvent mixtures respectively to a 1.5 mL glass vial. […] The temperature at which the suspension turned into a clear solution was recorded and assumed to be the saturation temperature. […] The temperatures at which the crystals are detected are assumed to be a cloud point. […]

[4] = NaCl concentration change in water after crystallization with functionalized gold nanoparticles (digital density meter); format: physicochemical; details: 1.8 nm gold nanoparticles with ethanol group, seeded, 16 hour stirring
From the text: The antisolvent crystallization of NaCl is the best example of the influence of agglomeration on the final product purity. Though the crystals are crystallized from a mother liquor containing as much as 50% weight antisolvent (on a solvent basis), the uptake of the antisolvent is as low as 30 ppm. In the present study, functionalized nanoparticles were used to crystallize NaCl from a water solution. NaCl is highly soluble in water and slightly soluble in ethanol. In the case of NaCl crystallization, water was used as a solvent and ethanol was used as an antisolvent. NaCl was crystallized in water using 1.8 nm functionalized nanoparticles with an ethanol group at the open terminal. […] After 4 hours the sample was seeded with NaCl crystals and the sample was crystallized only after 16 hour of stirring. The initial and final concentration of NaCl was measured using the Digital Density Meter DMA4500. This instrument is used for accurate measurements of solvent density necessary for the concentration measurements. […] The change in concentration after crystallization measured using the digital density meter was 27 mg.

[5] = physchem; details: water, thermodynamic from solid
Method: A saturated solution of ibuprofen in water was prepared at room temperature. […] An additional 20 mg of ibuprofen was added to 5 mL of the saturated solution. Then, 200 mg of iron oxide nanoparticles that had been functionalized with glycolic acid were added and mixed. Clear samples of solution were then taken from the slurry and analyzed with HPLC.

For O=[N+]([O-])c1ccc(O)cc1 [4-nitrophenol], the solubility thermodynamic at 24 h ([1]; 20 °C, thermodynamic from solid) was 13 mg/mL (≈ 93.5 mM), the solubility at 24 h ([1]; 25 °C) was 13 mg/mL (≈ 93.5 mM) and the “concentration in clear solution after IONP addition” value [2] was 16500 µg/mL.

In the case of OC[C@@H](O)[C@@H](O)[C@H](O)[C@H](O)CO [D-mannitol], the “solubility of D-mannitol in water-ethanol mixtures” value [3] is reported as “decreases”.

In the case of [Cl-].[Na+] [NaCl, Sodium chloride], the “change in concentration after crystallization” value [4] is reported as 27 mg.

Compound CC(C)Cc1ccc(C(C)C(=O)O)cc1 (stereo not drawn) [ibuprofen] has a solubility [5] of 0.009 mg/mL (≈ 0.0436 mM).
